Several values for one entry are separate records, joined by “and”; a condition that tells them apart may be missing. Identical values can stand only once. Each block holds one molecule with its values, some of them ahead of it. Where a SMILES comes first, the peptide text is derived from it. Primed or numbered codes have the meaning given here. Where no end group is shown, it is not given here. [ ]: non-standard residue; d: D form. The star is where a group is joined. ξ: configuration not given here. X2 = OCC1OC(OC2C(CO)OC(*)C(O)C2O)C(O)C(O)C1O; Glc = glucose on Ser (glucosylated Ser); Lac′ = lactose, glycoside on Ser; X1 = OCC1OC(*)C(O)C(O)C1O; Nva = CCC[C@H](N)C(=O)O; ξS = NC(CO)C(=O)O; Sar = CNCC(=O)O
Tests used:
PAC1 = target: T1, PAC1 (Homo sapiens, UniProt P41586); assay: cAMP accumulation assay in CHO cells stably expressing PAC1; type: cell-based; conditions: for Emax: CHO
T1 construct: 3xHA (N)
T1 sequence (P41586 21-468): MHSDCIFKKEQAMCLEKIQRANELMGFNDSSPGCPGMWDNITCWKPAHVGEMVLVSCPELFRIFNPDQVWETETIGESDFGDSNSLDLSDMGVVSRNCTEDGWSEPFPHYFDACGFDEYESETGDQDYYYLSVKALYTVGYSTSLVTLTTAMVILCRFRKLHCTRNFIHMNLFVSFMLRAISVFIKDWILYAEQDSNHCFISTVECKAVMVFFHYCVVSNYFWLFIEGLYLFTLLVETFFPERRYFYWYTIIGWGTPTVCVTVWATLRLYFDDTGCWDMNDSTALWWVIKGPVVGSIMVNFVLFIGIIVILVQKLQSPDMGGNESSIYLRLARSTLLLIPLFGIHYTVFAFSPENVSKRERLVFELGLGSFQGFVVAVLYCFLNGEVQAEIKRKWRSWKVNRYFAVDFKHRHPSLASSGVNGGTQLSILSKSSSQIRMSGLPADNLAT

VPAC1 = target: T2, VPAC1 (Homo sapiens, UniProt P32241); assay: cAMP accumulation assay in CHO cells stably expressing VPAC1; type: cell-based; conditions: for Emax: CHO
T2 construct: 3xHA (N)
T2 sequence (P32241 31-457): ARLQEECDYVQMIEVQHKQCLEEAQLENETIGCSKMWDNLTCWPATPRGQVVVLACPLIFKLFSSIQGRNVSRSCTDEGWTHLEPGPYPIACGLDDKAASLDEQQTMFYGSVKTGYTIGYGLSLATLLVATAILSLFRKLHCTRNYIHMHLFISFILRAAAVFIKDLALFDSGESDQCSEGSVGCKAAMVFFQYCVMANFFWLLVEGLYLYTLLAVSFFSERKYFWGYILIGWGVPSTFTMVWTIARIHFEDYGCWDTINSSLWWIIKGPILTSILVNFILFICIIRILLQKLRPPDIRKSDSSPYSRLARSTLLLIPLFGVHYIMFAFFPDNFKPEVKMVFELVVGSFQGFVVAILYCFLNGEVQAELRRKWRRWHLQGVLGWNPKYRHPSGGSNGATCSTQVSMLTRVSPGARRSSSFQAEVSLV

VPAC2 = target: T3, VPAC2 (Homo sapiens, UniProt P41587); assay: cAMP accumulation assay in CHO cells stably expressing VPAC2; type: cell-based; conditions: for Emax: CHO
T3 construct: 3xHA (N)
T3 sequence (P41587 24-438): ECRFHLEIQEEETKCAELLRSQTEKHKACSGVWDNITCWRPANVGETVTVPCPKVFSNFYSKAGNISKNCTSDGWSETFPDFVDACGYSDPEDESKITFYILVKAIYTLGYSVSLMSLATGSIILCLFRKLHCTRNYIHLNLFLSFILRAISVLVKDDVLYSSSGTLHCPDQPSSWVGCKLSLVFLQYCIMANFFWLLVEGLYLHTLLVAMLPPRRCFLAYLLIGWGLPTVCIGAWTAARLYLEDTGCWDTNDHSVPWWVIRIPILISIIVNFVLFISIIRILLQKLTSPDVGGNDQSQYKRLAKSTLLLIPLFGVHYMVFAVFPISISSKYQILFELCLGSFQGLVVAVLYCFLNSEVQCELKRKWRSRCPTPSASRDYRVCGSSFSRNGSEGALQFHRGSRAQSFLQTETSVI

human VPAC1 [1] = target: T4, human VPAC1 (human, UniProt P32241 31-457); assay: cell-based or functional assay
T4 sequence (looked up): T2 sequence (P32241 31-457)

human PAC1 = target: T5, human PAC1 (human, UniProt P41586 21-468); assay: cell-based or functional assay
T5 sequence (looked up): T1 sequence (P41586 21-468)

human VPAC1 [2] = target: T4, human VPAC1; assay: cell-based or functional assay; remark: listed apart in the source
human VPAC2 [3] = target: T6, human VPAC2 (human, UniProt P41587 24-438); assay: cell-based or functional assay
T6 sequence (looked up): T3 sequence (P41587 24-438)

human VPAC2 [4] = target: T6, human VPAC2; assay: cell-based or functional assay; remark: listed apart in the source
[5] = Table 3, in vitro cAMP stimulation, NC = No Convergence (no activity)

Molecule: CCC[C@H](NC(=O)[C@H](CCC(N)=O)NC(=O)[C@H](CCCCN)NC(=O)[C@H](CCCNC(=N)N)NC(=O)[C@H](Cc1ccc(O)cc1)NC(=O)[C@H](CCCNC(=N)N)NC(=O)[C@H](CO)NC(=O)[C@H](Cc1ccc(O)cc1)NC(=O)[C@H](CO)NC(=O)[C@H](CC(=O)O)NC(=O)[C@@H](NC(=O)[C@H](Cc1ccccc1)NC(=O)[C@@H](NC(=O)CNC(=O)[C@H](CC(=O)O)NC(=O)[C@H](CO)NC(=O)[C@@H](N)Cc1c[nH]cn1)[C@@H](C)CC)[C@@H](C)O)C(=O)N[C@@H](C)C(=O)N[C@H](C(=O)N[C@@H](CCCCN)C(=O)N[C@@H](CCCCN)C(=O)N[C@@H](Cc1ccc(O)cc1)C(=O)N[C@@H](CC(C)C)C(=O)NC(COC1OC(CO)C(O)C(O)C1O)C(=O)NC(COC1OC(CO)C(O)C(O)C1O)C(N)=O)C(C)C (stereo partly drawn) [CRA-DV-3024] (H-HSDGIFTDSYSRYRKQ[Nva]AVKKYL[ξS](X1)[ξS](X1)-NH2)
Emax (PAC1): 152%
Emax (VPAC1): 127%
Emax (VPAC2; [5]): 130%

Molecule: CCC[C@H](NC(=O)[C@H](CCC(N)=O)NC(=O)[C@H](CCCCN)NC(=O)[C@H](CCCNC(=N)N)NC(=O)[C@H](Cc1ccc(O)cc1)NC(=O)[C@H](CCCNC(=N)N)NC(=O)[C@H](CO)NC(=O)[C@H](Cc1ccc(O)cc1)NC(=O)[C@H](CO)NC(=O)[C@H](CC(=O)O)NC(=O)[C@@H](NC(=O)[C@H](Cc1ccccc1)NC(=O)[C@@H](NC(=O)CNC(=O)[C@H](CC(=O)O)NC(=O)[C@H](CO)NC(=O)[C@@H](N)Cc1c[nH]cn1)[C@@H](C)CC)[C@@H](C)O)C(=O)N[C@@H](C)C(=O)N[C@H](C(=O)N[C@@H](CCCCN)C(=O)N[C@@H](CCCCN)C(=O)N[C@@H](Cc1ccc(O)cc1)C(=O)N[C@@H](CC(C)C)C(=O)NC(COC1OC(CO)C(OC2OC(CO)C(O)C(O)C2O)C(O)C1O)C(N)=O)C(C)C (stereo partly drawn) [CRA-TG-3025] (H-HSDGIFTDSYSRYRKQ[Nva]AVKKYL[ξS](X2)-NH2)
Emax (PAC1): 174%
Emax (VPAC1): 91%
Emax (VPAC2): 168%
Emax (VPAC2; [5]): 118%

Molecule: CCC[C@H](NC(=O)[C@H](CCC(N)=O)NC(=O)[C@H](CCCCN)NC(=O)[C@H](CCCNC(=N)N)NC(=O)[C@H](Cc1ccc(O)cc1)NC(=O)[C@H](CCCNC(=N)N)NC(=O)[C@H](CO)NC(=O)[C@H](Cc1ccc(O)cc1)NC(=O)[C@H](CO)NC(=O)[C@H](CC(=O)O)NC(=O)[C@@H](NC(=O)[C@H](Cc1ccccc1)NC(=O)[C@@H](NC(=O)CNC(=O)[C@H](CC(=O)O)NC(=O)[C@H](CO)NC(=O)[C@@H](N)Cc1c[nH]cn1)[C@@H](C)CC)[C@@H](C)O)C(=O)N[C@@H](C)C(=O)N[C@H](C(=O)N[C@@H](CCCCN)C(=O)N[C@@H](CCCCN)C(=O)N[C@@H](Cc1ccc(O)cc1)C(=O)N[C@@H](CC(C)C)C(=O)N[C@@H](CO)C(N)=O)C(C)C [CRA-DV-3022] (H-HSDGIFTDSYSRYRKQ[Nva]AVKKYLS-NH2)
Emax (PAC1): 198%
EC50 (PAC1; Table 3, in vitro cAMP stimulation): 2.2 nM
Emax (VPAC1): 42% and 94%
EC50 (VPAC1; Table 1, cAMP stimulation, CHO cells): 5.2 nM
Emax (VPAC2): 111%
Emax (VPAC2; [5]): 91%
EC50 (VPAC2; Table 1, cAMP stimulation, CHO cells, NC not defined here (Table 3: No Convergence)): 571 nM
EC50 (VPAC2; [5]): 571 nM

Molecule: CCC[C@H](NC(=O)[C@H](CCC(N)=O)NC(=O)[C@H](CCCCN)NC(=O)[C@H](CCCNC(=N)N)NC(=O)[C@H](Cc1ccc(O)cc1)NC(=O)[C@H](CCCNC(=N)N)NC(=O)[C@H](CO)NC(=O)[C@H](Cc1ccc(O)cc1)NC(=O)[C@H](CO)NC(=O)[C@H](CC(=O)O)NC(=O)[C@@H](NC(=O)[C@H](Cc1ccccc1)NC(=O)[C@@H](NC(=O)CN(C)C(=O)[C@H](CC(=O)O)NC(=O)[C@H](CO)NC(=O)[C@@H](N)Cc1c[nH]cn1)[C@@H](C)CC)[C@@H](C)O)C(=O)N[C@@H](C)C(=O)N[C@H](C(=O)N[C@@H](CCCCN)C(=O)N[C@@H](CCCCN)C(=O)N[C@@H](Cc1ccc(O)cc1)C(=O)N[C@@H](CC(C)C)C(=O)NC(COC1OC(CO)C(OC2OC(CO)C(O)C(O)C2O)C(O)C1O)C(N)=O)C(C)C (stereo partly drawn) [CRA-TG-3027] (H-HSD[Sar]IFTDSYSRYRKQ[Nva]AVKKYL[ξS](X2)-NH2)
Emax (PAC1): 134%
Emax (VPAC1): 90%

B1: CRA-TG-3027 (peptide)
peptide: HSD[Sar]IFTDSYSRYRKQ[Nva]AVKKYLS(Lac′)-NH2
cAMP stimulation Emax (Table 1, differs from Table 3) (human VPAC1 [1]): 107%
cAMP stimulation EC50 (human PAC1): 67 nM
cAMP stimulation Emax (human PAC1): 134%
cAMP stimulation EC50 (human VPAC1 [2]): 195 nM
cAMP stimulation Emax (human VPAC1 [2]): 90%

B3: CRA-DV-3022 (peptide)
peptide: HSDGIFTDSYSRYRKQ[Nva]AVKKYLS-NH2
modifications: not fully specified
cAMP stimulation Emax (Table 1, differs from Table 3) (human VPAC2 [3]): 111%
cAMP stimulation Emax (Table 1, differs from Table 3) (human VPAC1 [1]): 42%
cAMP stimulation EC50 (human VPAC2 [4]): 571 nM
cAMP stimulation Emax (human VPAC2 [4]): 91%
cAMP stimulation EC50 (human PAC1): 2.2 nM
cAMP stimulation Emax (human PAC1): 198%
cAMP stimulation EC50 (human VPAC1 [2]): 5.2 nM
cAMP stimulation Emax (human VPAC1 [2]): 94%

Other lines, results leading:

Emax (PAC1): 181%
Emax (VPAC1): 105%
Emax (VPAC2; [5]): 90%
Molecule: CCC[C@H](NC(=O)[C@H](CCC(N)=O)NC(=O)[C@H](CCCCN)NC(=O)[C@H](CCCNC(=N)N)NC(=O)[C@H](Cc1ccc(O)cc1)NC(=O)[C@H](CCCNC(=N)N)NC(=O)[C@H](CO)NC(=O)[C@H](Cc1ccc(O)cc1)NC(=O)[C@H](CO)NC(=O)[C@H](CC(=O)O)NC(=O)[C@@H](NC(=O)[C@H](Cc1ccccc1)NC(=O)[C@@H](NC(=O)CNC(=O)[C@H](CC(=O)O)NC(=O)[C@H](CO)NC(=O)[C@@H](N)Cc1c[nH]cn1)[C@@H](C)CC)[C@@H](C)O)C(=O)N[C@@H](C)C(=O)N[C@H](C(=O)N[C@@H](CCCCN)C(=O)N[C@@H](CCCCN)C(=O)N[C@@H](Cc1ccc(O)cc1)C(=O)N[C@@H](CC(C)C)C(=O)NC(COC1OC(CO)C(O)C(O)C1O)C(N)=O)C(C)C (stereo partly drawn) [CRA-DV-3023] (H-HSDGIFTDSYSRYRKQ[Nva]AVKKYL[ξS](X1)-NH2)

Emax (PAC1): 181%
Emax (VPAC1): 95%
Emax (VPAC2): 190%
Emax (VPAC2; [5]): 115%
Molecule: CCC[C@H](NC(=O)[C@H](CCC(N)=O)NC(=O)[C@H](CCCCN)NC(=O)[C@H](CCCNC(=N)N)NC(=O)[C@H](Cc1ccc(O)cc1)NC(=O)[C@H](CCCNC(=N)N)NC(=O)[C@H](CO)NC(=O)[C@H](Cc1ccc(O)cc1)NC(=O)[C@H](CO)NC(=O)[C@H](CC(=O)O)NC(=O)[C@@H](NC(=O)[C@H](Cc1ccccc1)NC(=O)[C@@H](NC(=O)[C@H](C)NC(=O)[C@H](CC(=O)O)NC(=O)[C@H](CO)NC(=O)[C@@H](N)Cc1c[nH]cn1)[C@@H](C)CC)[C@@H](C)O)C(=O)N[C@@H](C)C(=O)N[C@H](C(=O)N[C@@H](CCCCN)C(=O)N[C@@H](CCCCN)C(=O)N[C@@H](Cc1ccc(O)cc1)C(=O)N[C@@H](CC(C)C)C(=O)NC(COC1OC(CO)C(OC2OC(CO)C(O)C(O)C2O)C(O)C1O)C(N)=O)C(C)C (stereo partly drawn) [CRA-TG-3026] (H-HSDAIFTDSYSRYRKQ[Nva]AVKKYL[ξS](X2)-NH2)

cAMP stimulation Emax (Table 1, differs from Table 3) (human VPAC2 [3]): 128%
cAMP stimulation Emax (Table 1, differs from Table 3) (human VPAC1 [1]): 147%
cAMP stimulation EC50 (human VPAC2 [4]): 7370 nM
cAMP stimulation Emax (human VPAC2 [4]): 130%
cAMP stimulation EC50 (human PAC1): 1.9 nM
cAMP stimulation Emax (human PAC1): 152%
cAMP stimulation EC50 (human VPAC1 [2]): 26 nM
cAMP stimulation Emax (human VPAC1 [2]): 127%
B2: CRA-DV-3024 (peptide)
peptide: HSDGIFTDSYSRYRKQ[Nva]AVKKYLS(Glc)S(Glc)-NH2

cAMP stimulation Emax (Table 1, differs from Table 3) (human VPAC1 [1]): 118%
cAMP stimulation EC50 (human PAC1): 1.8 nM
cAMP stimulation EC50 (human VPAC1 [2]): 21 nM
B4: CRA-TG-3025 (peptide)
peptide: HSDGIFTDSYSRYRKQ[Nva]AVKKYLS(Lac′)-NH2
